Source: patent publication US20060074109A1, “Use of inhibitors of 24-hydroxylase in the treatment of cancer” (Sapphire Therapeutics, Inc., priority 2004, published 2006)

Legend:
UT-OC-3 cells = assay: Cell growth assay, crystal violet, 11 days; type: cell-based, human; settings: 200 nM VID 400 combined with vitamin D or retinoid compounds
Description: (§1) The human ovarian adenocarcinoma cell line, OVCAR-3 (ATCC, Manassas, Va.) was maintained, as recommended by the supplier, in RPMI 1640 medium (Sigma Aldrich, St. Louis, Mo.) supplemented with 10% FBS, 10 μg/ml insulin, 0.25% glucose and antibiotics (100 IU/ml penicillin, 100 μg/ml streptomycin). Human ovarian adenocarcinoma cell lines UT-OC-1, UT-OC-2, UT-OC-3, UT-OC-4, UT-OC-5 (Grenman, S., Engblom, P., Rantanen, V., Klemi, P. and Isola, J., “Cytogenetic Characterization of Five New Ovarian Carcinoma Cell Lines,” Acta Obstet. Gynecol. Scand., 76:83 (1997)) and SK-OV-3 and a human keratinocyte cell line HaCaT were grown in DMEM (Sigma Aldrich) with 10% FBS and antibiotics (100 IU/ml penicillin, 100 μg/ml streptomycin), and monkey kidney COS cells were maintained in DMEM/F12 (Sigma Aldrich) with 5% FBS. All cell lines were kept at 37° C. in a humidified 95% air/5% CO2 incubator.
(§2) When OVCAR-3 cells were on the logarithmic growth phase (70% confluent) the growth assay was started. For cell growth assay, 2,000 cell/200 μl/well were plated on 96-well culture plates. […] Ethanol was used as a vehicle, and it was also included in the control. The medium containing ethanol vehicle and/or hormones were changed to a fresh one every third day. Cell growth samples were taken 0, 1, 3, 5, 7, 9 and 11 days after the treatment.
(§3) Relative cell numbers were quantified as described previously (Kueng W, Silber E, Eppenberger U. Quantification of cells cultured on 96-well plates. Anal. Biochem., 182:16-9 (1989)). Cells were fixed on the bottom of the wells by addition of 10 μl of 11% glutaraldehyde solution in 0.1% phosphate buffer to 100 μl of medium. The plate was shaken 500 cycles/min for 15 min, washed 3 times by submersion in de-ionised water and air-dried. Fixed cells were stained with 0.1% solution of crystal violet dissolved in de-ionised water. After 20 min incubation, excess dye was removed by carefully washing with de-ionised water. The plate was air-dried prior to a bound dye solubilisation in 100 μl of 10% acetic acid. Relative cell number was given as absorbance units by measuring the optical density (590 nm) from each well using Victor 1420 multilabel counter (Wallac, Turku, Finland). Six determinations were used to calculate the mean optical density ±SD in each concentration at each time point. The absorbance value of day 0 (an overnight culture of 2,000 cells/well) was set as 0 by subtracting it from each value obtained from adjacent time-point measurements (days 1-11), and based on these values growth curves were created. Experiments were repeated 3-5 times. Day 11 was used to compare the effect of hormone treatments and 24OHase inhibitor. Statistical analyses were done using Student's t-test.
(§4) Cell growth samples were obtained after 11 days treatment.

SK-OV-3 cells = assay: Cell growth assay, crystal violet, 11 days; type: cell-based, human
Description: as §1, §2, §3, §4

UT-OC-2 cells = assay: Cell growth assay, crystal violet, 11 days; type: cell-based, human; settings: 200 nM VID 400 combined with vitamin D or retinoid compounds
Description: as §1, §2, §3, §4

UT-OC-5 cells = assay: Cell growth assay, crystal violet, 11 days; type: cell-based, human; settings: 200 nM VID 400 combined with hormones, especially 1,25(OH)2D3 or EB 1089, 11 days
Description: as §1, §2, §3, §4

UT-OC-4 cells = assay: Cell growth assay, crystal violet, 11 days; type: cell-based, human
Description: as §1, §2, §3, §4

UT-OC-1 cells = assay: Cell growth assay, crystal violet, 11 days; type: cell-based, human
Description: as §1, §2, §3, §4

[1] = system: ovarian cancer cell lines; assay: Cell growth assay, crystal violet, 11 days, all cell lines; type: cell-based, human; settings: 200 nM VID 400 alone
Description: The human ovarian adenocarcinoma cell line, OVCAR-3 (ATCC, Manassas, Va.) was maintained, as recommended by the supplier, in RPMI 1640 medium (Sigma Aldrich, St. Louis, Mo.) supplemented with 10% FBS, 10 μg/ml insulin, 0.25% glucose and antibiotics (100 IU/ml penicillin, 100 μg/ml streptomycin). Human ovarian adenocarcinoma cell lines UT-OC-1, UT-OC-2, UT-OC-3, UT-OC-4, UT-OC-5 (Grenman, S., Engblom, P., Rantanen, V., Klemi, P. and Isola, J., “Cytogenetic Characterization of Five New Ovarian Carcinoma Cell Lines,” Acta Obstet. Gynecol. Scand., 76:83 (1997)) and SK-OV-3 and a human keratinocyte cell line HaCaT were grown in DMEM (Sigma Aldrich) with 10% FBS and antibiotics (100 IU/ml penicillin, 100 μg/ml streptomycin), and monkey kidney COS cells were maintained in DMEM/F12 (Sigma Aldrich) with 5% FBS. […]
Relative cell numbers were quantified as described previously (Kueng W, Silber E, Eppenberger U. Quantification of cells cultured on 96-well plates. Anal. Biochem., 182:16-9 (1989)). […] Relative cell number was given as absorbance units by measuring the optical density (590 nm) from each well using Victor 1420 multilabel counter (Wallac, Turku, Finland). […] The absorbance value of day 0 (an overnight culture of 2,000 cells/well) was set as 0 by subtracting it from each value obtained from adjacent time-point measurements (days 1-11), and based on these values growth curves were created. […]

24-hydroxylase = biological target: T1, 24-hydroxylase (Homo sapiens, UniProt Q07973); settings: Schuster et al., J. Cell. Biochem. 88:372-380 (2003); cited from earlier work
T1 sequence (Q07973 36-514): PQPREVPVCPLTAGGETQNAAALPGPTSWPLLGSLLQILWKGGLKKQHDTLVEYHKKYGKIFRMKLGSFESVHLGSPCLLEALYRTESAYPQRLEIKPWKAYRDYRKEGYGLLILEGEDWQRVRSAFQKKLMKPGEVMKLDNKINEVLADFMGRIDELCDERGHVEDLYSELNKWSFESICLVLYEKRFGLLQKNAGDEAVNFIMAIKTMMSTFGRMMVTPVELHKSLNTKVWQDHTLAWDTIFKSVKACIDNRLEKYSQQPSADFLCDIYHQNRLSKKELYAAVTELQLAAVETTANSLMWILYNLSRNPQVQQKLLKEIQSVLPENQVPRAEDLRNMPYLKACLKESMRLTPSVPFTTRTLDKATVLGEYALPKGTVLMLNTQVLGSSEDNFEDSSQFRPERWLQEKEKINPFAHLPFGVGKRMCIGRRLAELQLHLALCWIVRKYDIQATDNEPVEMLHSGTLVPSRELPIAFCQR

O=C(NC[C@@H](c1ccccc1)n1ccnc1)c1ccc(-c2ccc(Cl)cc2)cc1 [VID400, 2-(R)-4′-Chlorobiphenyl-4-carboxylic acid (2-imidazol-1-yl-2-phenyl-ethyl)-amide]
effect on cell growth (UT-OC-3 cells): growth inhibition was seen
effect on growth inhibition (SK-OV-3 cells; 200 nM VID 400 combined with 9-CRA): potentiated this effect
effect on cell growth (SK-OV-3 cells; 200 nM VID 400 combined with vitamin D compounds): slightly inhibitory effect on growth
effect on cell growth (UT-OC-2 cells): growth inhibition was seen
effect on cell growth (UT-OC-5 cells): had an inhibitory effect on growth
effect on cell growth (UT-OC-4 cells; 200 nM VID 400 combined with 100 nM 1,25(OH)2D3 or EB 1089, 11 days): cell growth was inhibited
effect on growth inhibition (UT-OC-4 cells; 200 nM VID 400 combined with 10 μM ATRA or 9-CRA, 11 days): potentiated this effect
inhibition of cell growth (UT-OC-1 cells; 200 nM VID 400 combined with 100 nM EB 1089, 11 days): did so
effect on growth inhibition (UT-OC-1 cells; 200 nM VID 400 combined with 10 μM 9-CRA, 11 days): augmented the growth inhibition
augmentation of growth inhibition (UT-OC-1 cells; 200 nM VID 400 combined with 10 μM ATRA, 11 days): not seen
effect on cell growth [1]: varied from slight stimulation to growth inhibition
inhibition of 24-hydroxylase (24-hydroxylase): potent inhibitors of 24-hydroxylase
